# In patent US20110152093A1, “Herbicidal compositions comprising flufenacet” (Bayer CropScience AG, priority 2009, published 2011):
# How the values were obtained:
# Type in all cases: in vivo
# [1] = tested on: HORVS (Hordeum vulgare, summer barley); experiment: Action under various soil conditions (soil types), test method 7, crop compatibility; conditions: g of AS/ha: (A) 90, (B) 1200, (C) 140, (A)+(B)+(C) 90 + 1200 + 140
# Method: (§1) In the standard design of the test, seeds of various broad-leaved weed and weed grass biotypes (origins) were sown in a 8-13 cm diameter pot filled with natural soil of a standard field soil (loamy silt; non-sterile) and covered with a covering soil layer of about 1 cm. The pots were then cultivated in a greenhouse (12-16 h of light, temperature day 20-22° C., night 15-18° C.) until the time of application. The pots were treated on a laboratory track sprayer with spray liquors comprising the compositions according to the invention, mixtures of the prior art or components used individually. Application of the active compounds or active compound combinations formulated as WG, WP, EC or otherwise was carried out at the appropriate growth stages of the plants. The application rate for the spray application was 100-600 l of water/ha. After the treatment, the plants were returned to the greenhouses.
# (§2) About 3 weeks after the application, the soil action or/and foliar action was assessed visually according to a scale of 0-100% in comparison to an untreated comparative group: 0%=no noticeable effect compared to the untreated comparative group; 100%=full effect compared to the untreated comparative group.
# (§3) (notes: the term “seeds” also includes vegetative propagation forms such as, for example, rhizome pieces; abbreviations used: h light=hours of illumination, g of AS/ha=gram of active substance per hectare, l/ha=liter per hectare, S=sensitive, R=resistant) • 1. Pre-emergence action against weeds: seeds of various broad-leaved weed and weed grass biotypes (origins) were sown in a 8-13 cm diameter pot filled with natural soil of a standard field soil (loamy silt; non-sterile) and covered with a covering soil layer of about 1 cm. The pots were then cultivated in a greenhouse (12-16 h of light, temperature day 20-22° C., night 15-18° C.) until the time of application. The pots were treated at the BBCH stage 00-10 of the seeds/plants on a laboratory track sprayer with spray liquors comprising the compositions according to the invention, mixtures or components used individually, as WG, WP, EC or other formulations. The application rate for the spray application was 100-600 l of water/ha. After the treatment, the plants were returned to the greenhouses and, when required, treated with fertilizer and watered. • 2. Post-emergence action against weeds: seeds of various broad-leaved weed and weed grass biotypes (origins) were sown in a 8-13 cm diameter pot filled with natural soil of a standard field soil (loamy silt; non-sterile) and covered with a covering soil layer of about 1 cm. The pots were then cultivated in a greenhouse (12-16 h of light, temperature day 20-22° C., night 15-18° C.) until the time of application. The pots were treated at various BBCH stages between 11-25 of the seeds/plants, i.e. generally between two to three weeks after the start of the cultivation, on a laboratory track sprayer with spray liquors comprising the compositions according to the invention, mixtures or components used individually, as WG, WP, EC or other formulations. The application rate for the spray application was 100-600 l of water/ha. After the treatment, the plants were returned to the greenhouses and, when required, treated with fertilizer and watered. • 3. […]
# [2] = tested on: HORVS (Hordeum vulgare, summer barley); experiment: Selective pre-emergence action (crop compatibility), greenhouse trial, test method 3; conditions: PE application; g of AS/ha: (A) 90, (B) 1200, (C) 140, (A)+(B)+(C) 90 + 1200 + 140
# Method: as §1
# as §2, with “group. […]” for “group.”
# AVEFA (Avena fatua) [3] = experiment: PE action at different soil pH values, test method 10; conditions: PE application, g of AS/ha: (A) 90, (B) 1200, (C) 140, (A)+(B)+(C) 90 + 1200 + 140
# Method: as §1, §2
# [4] = tested on: HORVS (Hordeum vulgare, summer barley); experiment: Selective post-emergence action (crop compatibility), greenhouse trial, test method 4; conditions: PO application; g of AS/ha: (A) 240, (B) 1200, (C) 140, (A)+(B)+(C) 240 + 1200 + 140
# Method: as §1, §2
# (notes: the term “seeds” also includes vegetative propagation forms such as, for example, rhizome pieces; abbreviations used: h light=hours of illumination, g of AS/ha=gram of active substance per hectare, l/ha=liter per hectare, S=sensitive, R=resistant) • 1. Pre-emergence action against weeds: seeds of various broad-leaved weed and weed grass biotypes (origins) were sown in a 8-13 cm diameter pot filled with natural soil of a standard field soil (loamy silt; non-sterile) and covered with a covering soil layer of about 1 cm. The pots were then cultivated in a greenhouse (12-16 h of light, temperature day 20-22° C., night 15-18° C.) until the time of application. […]
# [5] = tested on: MATCH (Matricaria chamomilla); experiment: PE action at different sowing depths, test method 9; conditions: PE application, g of AS/ha: (A) 90, (B) 1200, (C) 140, (A)+(B)+(C) 90 + 1200 + 140
# Method: as §1
# as §2, with “group. […]” for “group.”
# VIOAR (Viola arvensis) = experiment: Post-emergence (PO) action against weeds, greenhouse trial, test method 2; conditions: PO application; g of AS/ha: (A) 240, (B) 1200, (C) 140, (A)+(B)+(C) 240 + 1200 + 140
# Method: as §1, §2, §3
# POAAN (Poa annua) = experiment: as above; conditions: PO application; g of AS/ha: (A) 240, (B) 1200, (C) 140, (A)+(B)+(C) 240 + 1200 + 140
# Method: as §1, §2, §3
# AVEFA (Avena fatua) [6] = experiment: Pre-emergence (PE) action against weeds, greenhouse trial, test method 1; conditions: PE application; g of AS/ha: (A) 90, (B) 1200, (C) 140, (A)+(B)+(C) 90 + 1200 + 140
# Method: as §1
# as §2, with “group. […]” for “group.”
# [7] = tested on: MATCH (Matricaria chamomilla); experiment: as above; conditions: PE application; g of AS/ha: (A) 90, (B) 1200, (C) 140, (A)+(B)+(C) 90 + 1200 + 140
# Method: as §1
# as §2, with “group. […]” for “group.”
# [8] = tested on: HORVS (Hordeum vulgare, summer barley); experiment: Pre-sowing application (7 days prior to sowing), crop compatibility; conditions: g of AS/ha: (A) 90, (B) 1200, (C) 140, (A)+(B)+(C) 90 + 1200 + 140
# Method: as §1
# as §2, with “group. […]” for “group.”
# [9] = tested on: HORVS (Hordeum vulgare, summer barley); experiment: PE crop compatibility at different soil pH values, test method 10; conditions: PE application, g of AS/ha: (A) 90, (B) 1200, (C) 140, (A)+(B)+(C) 90 + 1200 + 140
# Method: as §1, §2
smiles,measurement,setting,value
"CCC(CC)Nc1c([N+](=O)[O-])cc(C)c(C)c1[N+](=O)[O-] [(B) pendimethalin, N-(1-ethylpropyl)-3,4-dimethyl-2,6-dinitrobenzenamine]",activity HORVS IU soil (crop plant),[1]; IU soil,0%
same,activity HORVS IU/EC73 soil (crop plant),[1]; IU/EC73 soil,0%
same,activity HORVS (crop plant),[2],50%
same,activity AVEFA pH 7.4,AVEFA (Avena fatua) [3]; soil pH 7.4,10%
same,activity AVEFA pH 8.4,AVEFA (Avena fatua) [3]; soil pH 8.4,30%
same,"activity HORVS (crop plant; visual, scale 0-100%)",[4],10%
same,activity MATCH 5 mm,[5]; sowing depth 5 mm,0%
same,activity MATCH 20 mm,[5]; sowing depth 20 mm,30%
same,"activity VIOAR (visual, scale 0-100%)",VIOAR (Viola arvensis),30%
same,"activity POAAN (visual, scale 0-100%)",POAAN (Poa annua),0%
same,activity AVEFA,AVEFA (Avena fatua) [6],40%
same,activity MATCH,[7],18%
same,activity HORVS (crop plant),[8],30%
same,activity HORVS pH 7.4 (crop plant),[9]; soil pH 7.4,0%
same,activity HORVS pH 8.4 (crop plant),[9]; soil pH 8.4,15%
